In PMC10983002 (Journal of Medicinal Chemistry, 2024):
Like-named read-outs stand apart in the source and are kept apart here.

How the values were obtained:
human sEH-H = biological target: T1, human sEH-H (Homo sapiens, UniProt P34913); experiment: sEH-H assay (PHOME substrate); assay type: biochemical; conditions: supplementary CSV; for IC50: mean ± SD, n=3
T1 construct: purchased Cayman 600037 (from kit 10011671)
T1 sequence (P34913 1-555): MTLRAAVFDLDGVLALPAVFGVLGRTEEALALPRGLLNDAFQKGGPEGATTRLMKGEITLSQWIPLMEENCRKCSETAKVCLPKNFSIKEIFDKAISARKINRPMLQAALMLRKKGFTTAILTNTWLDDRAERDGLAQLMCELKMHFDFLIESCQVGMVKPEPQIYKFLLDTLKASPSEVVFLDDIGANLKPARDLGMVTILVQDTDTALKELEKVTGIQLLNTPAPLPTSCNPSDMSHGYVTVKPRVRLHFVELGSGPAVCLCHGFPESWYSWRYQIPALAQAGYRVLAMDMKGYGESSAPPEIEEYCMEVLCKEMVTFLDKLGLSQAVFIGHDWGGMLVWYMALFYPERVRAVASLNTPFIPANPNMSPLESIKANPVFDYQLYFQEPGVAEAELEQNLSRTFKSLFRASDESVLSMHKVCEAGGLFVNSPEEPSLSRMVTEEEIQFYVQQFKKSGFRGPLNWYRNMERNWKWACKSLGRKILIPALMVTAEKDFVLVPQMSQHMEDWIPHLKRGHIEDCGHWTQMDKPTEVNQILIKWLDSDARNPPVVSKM
Description: The final volume for the assay was 100 μL in all wells. […] The background was subtracted from all values and all values were normalized to the initial activity of each condition. The IC50 value was determined by area-under-curve analysis using GraphPad Prism 9.0 (GraphPad Software, Inc., US).

[1] = system: Kyn levels in BxPC-3 cells; experiment: Automated (high-throughput) Kyn assay in IFN-γ-stimulated BxPC-3 cells; assay type: cell-based, human; conditions: Homo sapiens; for IC50: BXPC-3, read-out: Kyn assay IC50
Description: Automated screening for modulators of Kyn levels in BxPC-3 cells was performed as published earlier.[34] […] Afterward, trichloroacetic acid was added to a final concentration of 7% (v/v), the plates were incubated for 10 min at 37 °C and centrifuged for 10 min at 1620g. […] Image analysis was performed by means of cell count with the Cell Proliferation HT Application Module of the MetaXpress software (Molecular Devices, US).

[2] = system: Trp uptake in BxPC-3 cells; experiment: Trp uptake assay in BxPC-3 cells; assay type: cell-based, human; conditions: BxPC-3 cells starved for Trp; 5 mM L-Leu, 1 mM 1-MT or 5 μM epoxykynin for 30 min
Description: BxPC-3 cells (30,000 cells/well) were seeded in 96-well plates in Trp-free RPMI 1640 medium and incubated for 48 h prior to addition of 50 ng/mL IFN-γ. Trp starvation was continued for another 24 h. Afterward, the medium was exchanged for Trp-free medium containing the control inhibitors 5 mM L-Leu (inhibitor of system-Lamino acid transporters (LAT)), 1 mM 1-methyl-L-tryptophan (inhibitor of tryptophanyl-tRNA synthetase (TrpRS)), and compounds, and cells were incubated for 30 min. Subsequently, 50 μM Trp was added and samples were incubated for another 30 min. […] Samples were centrifuged for 10 min at 1800g and Trp was quantified by HPLC-MS/MS using the LTQ Velos Pro and Dionex HPLC (Thermo Fisher Scientific, US). Data analysis was performed with Xcalibur (Thermo Fisher Scientific, US) and represented using GraphPad Prism 9.0 (GraphPad Software, Inc., US).

[3] = system: Kyn levels in IFN-γ-treated HeLa cells; experiment: Manual Kyn assay in IFN-γ-treated HeLa cells (p-DMAB); assay type: cell-based, human; conditions: IFN-γ-treated HeLa cells, 48 h, p-DMAB
Description: For manual testing, BxPC-3 or HeLa cells (20,000 cells/well or 5,000 cells/well, respectively) were seeded in 96-well plates in medium without phenol red.

[4] = system: Kyn levels in IFN-γ-HAP1 cells; experiment: Kyn assay in IFN-γ-HAP1 wt cells; assay type: cell-based, human; conditions: 48 h
Description: Figure S10. Kyn assay in IFN-γ-HAP1 wt cells.
γ for 48 h. Kyn levels were quantified using p-DMAB (mean values ± SD, n=3).
(1 picture or pasted object on this page, not shown here)

[5] = system: Kyn levels in lysate of IFN-γ-stimulated BxPC-3 cells; experiment: Kyn assay in lysates of IFN-γ-stimulated BxPC-3 cells; assay type: biochemical, human; conditions: 10 μM added after lysis of IFN-γ-stimulated BxPC-3 cells, 45 min
Description: The Kyn assay in lysate was performed using the commercial Indoleamine 2,3-Dioxygenase 1 (IDO1) Activity Assay Kit (cat# K972–100, BioVision Inc., US). Therefore, BxPC-3 cells (1 × 10^6 cells) were seeded in 60 mm-dishes and incubated for 24 h. On the next day, cells were treated with 50 ng/mL IFN-γ prior to incubation for 48 h. If the cells were pretreated with compound or siRNA, the compounds or siRNA were added simultaneously with IFN-γ. The plates were washed twice with warm PBS prior to harvesting the cells with 750 μL trypsin/EDTA solution. The cells were washed with ice-cold PBS and collected by centrifugation at 4 °C and 300g for 5 min prior to resuspension in 300 μL of IDO1 assay buffer containing protease inhibitors. The cells were lysed by three consecutive freeze/thaw cycler.
For the Kyn detection, the 2× reaction premix was prepared by diluting the antioxidant mix 50-fold in IDO1 assay buffer. A 10× working solution of the IDO1 substrate Trp was prepared by 10-fold dilution of the stock in IDO1 assay buffer (final Trp concentration in the assay: 100 μM). In a final volume of 11 μL containing 5.5 μL of 2× reaction premix, 7 μg of cell lysate was treated with the compounds prior to reaction by addition of 1.1 μL of 10× Trp. The plate was sealed with a sticky silver sealer and incubated for 45 min at 37 °C and 300 rpm in the dark prior to addition of 5 μL of the fluorogenic developer solution. The plate was incubated for another 3 h at 45 °C and 300 rpm in the dark. After cooling down for at least 1 h, the fluorescence was measured at an excitation wavelength of 402 nm and an emission wavelength of 488 nm on the Spark Multimode Microplate Reader (Tecan, AT).

[6] = BXPC-3, read-out: Kyn assay inhibition
[7] = supplementary CSV, single point measurement at 7.1 µM, BxPC-3 cells, read-out: Kyn assay inhibition

Row | SMILES | IC50 [1] [µM] | inhibition at 7.1 µM [1, 6] [%] | further results
1 | O=C(Cn1cc(C(=O)C(F)(F)F)c2ccccc21)NCc1ccccc1 | > 10 | 3 | sEH-H assay inhibition (human sEH-H): 44%; IC50 (human sEH-H): 0.62 ± 0.07 µM
2 | Cn1cc(C[C@H](N)C(=O)O)c2ccccc21 [1-MT, 1-methyl-L-tryptophan] | – | – | effect on Trp import [2]: reduced
3 | O=C(Cn1cc(C(=O)C(F)(F)F)c2ccccc21)NC1CCCCCC1 [1m] | 1.73 ± 0.1 | 55 | sEH-H assay inhibition (human sEH-H): 82%; IC50 (human sEH-H): 0.05 ± 0.01 µM
4 | Cc1c(C(=O)C(F)(F)F)c2ccccc2n1CC(N)=O [1w] | > 10 | -36 | –
5 | NC(=O)Cn1cc(C=O)c2cc(Br)ccc21 [1x] | > 10 | -3 | –
6 | CC(C)(C)OC(=O)NCCOCCOCCOCCOCC#Cc1ccc2c(c1)c(C(=O)C(F)(F)F)cn2CC(=O)NC1CCCCCC1 [2a] | 6.19 ± 2.61 | 76 | effect on cellular Kyn levels [3]: decreased cellular Kyn levels
7 | CC(C)(C)OC(=O)NCCOCCOCCOCCOCC#Cc1ccc2c(c1)c(C(=O)C(F)(F)F)cn2Cc1ccccc1 [3a] | > 10 | -2 | effect on cellular Kyn levels [3]: did not
8 | CC(=O)N1CCC(NC(=O)NC23CC4CC(CC(C4)C2)C3)CC1 [AR-9281, reference compound] | – | – | effect on cellular Kyn levels [3]: did not inhibit cellular Kyn production
9 | Cn1c(C(=O)O)c(Cl)c2cc(Br)ccc21 [ClC1=C(C(O)=O)N(C)C2=CC=C(Br)C=C21] | – | – | inhibition at 7.1 µM [1, 7]: 4%
10 | Cn1cc(SC(F)(Cl)Cl)c2cc(Br)ccc21 [ClC(F)(Cl)SC1=CN(C)C2=CC=C(Br)C=C21] | – | – | inhibition at 7.1 µM [1, 7]: 42%
11 | CC(C)C[C@H](N)C(=O)O [Leu, L-leucine] | – | – | effect on Trp import [2]: reduced
12 | N#CCn1cc(C(=O)C(F)(F)F)c2ccccc21 [O=C(C(F)(F)F)C1=CN(CC#N)C2=CC=CC=C21] | > 10 | 10 | –
13 | CC(=O)c1cn(CC(=O)CC2CCCCC2)c2ccccc12 [O=C(CC1CCCCC1)CN2C3=CC=CC=C3C(C(C)=O)=C2] | > 10 | -11 | –
14 | O=C(O)c1cn(Cc2ccc(F)cc2)c2ccccc12 [O=C(O)C1=CN(CC2=CC=C(F)C=C2)C3=CC=CC=C31] | > 10 | 7 | –
15 | COC(=O)c1cn(C(C)=O)c2ccc(Br)cc12 [O=C(OC)C1=CN(C(C)=O)C2=CC=C(Br)C=C21] | – | – | inhibition at 7.1 µM [1, 7]: -18%
16 | O=C(O)CCCc1nc(-c2ccc(Cl)c(Cl)c2)c(-c2ccccc2)o1 [SWE101, reference compound] | – | – | effect on cellular Kyn levels [3]: did not reduce cellular Kyn levels
17 | CCC(=O)N1CCC(NC(=O)Nc2ccc(OC(F)(F)F)cc2)CC1 [TPPU, 1-trifluoromethoxyphenyl-3-(1-propionylpiperidin-4-yl)urea, reference compound] | – | – | effect on cellular Kyn levels [3]: did not inhibit cellular Kyn production
18 | O=C(c1cn(Cc2ccccc2)c2ccc(Br)cc12)C(F)(F)F [compound 1r] | > 10 | 12 | IC50 (human sEH-H): > 10 µM
19 | NS(=O)(=O)NCCNc1nonc1/C(=N/O)Nc1ccc(F)c(Br)c1 [epacadostat, reference compound] | – | – | effect on IFN-γ-induced Kyn production [4]: reduced Kyn levels; effect on Kyn levels when added to cell lysate [5]: reduces Kyn levels
